Experimental findings from patent US7838508B2, “4′-thio-L-xyloy furanosyl nucleosides, precursors thereof, preparation and use thereof” (priority 2000, dated 2010) are described below.

The test system of data set [1] is DLD-1 (colon). Briefly: Cell culture cytotoxicity, DLD-1 (colon). The data set is classed as cell-based, human. On the procedure: (§1) The cell culture cytotoxicity of compounds of the present invention was determined against several different human cancel cell lines (see Table 1 below) and for antiviral activity (see Table 2 below).
Data set [2] relates to CCRF-CEM (leukemia). Briefly: Cell culture cytotoxicity, CCRF-CEM (leukemia). The data set is classed as cell-based, human. As to conditions: read-out: Cytotoxicity IC50, CCRF-CEM (leukemia). On the procedure: as §1
The test system of data set [3] is SNB-7 (CNS). Briefly: Cell culture cytotoxicity, SNB-7 (CNS). The data set is classed as cell-based, human. On the procedure:
as §1

Data set [4] concerns CAKI-1 (renal). Briefly: Cell culture cytotoxicity, CAKI-1 (renal). Type of data set: cell-based, human. As for the experimental part:
as §1

Data set [5] has as its system NCI-H23 (lung). Briefly: Cell culture cytotoxicity, NCI-H23 (lung). Type of data set: cell-based, human. On the procedure: as §1
For data set [6], the system named is SK-MEL-28 (melanoma). Briefly: Cell culture cytotoxicity, SK-MEL-28 (melanoma). The data set is classed as cell-based, human. On the procedure:
as §1

The subject of data set [7] is CMV. Briefly: Antiviral (CMV) activity. Type of data set: cell-based. As to conditions: for pIC50: Human betaherpesvirus 5, Antiviral (CMV) data, read-out: IC50: 50% Inhibitory Concentration of CMV; for TI: Therapeutic Index (TC50/IC50): TC50/IC50, CMV. As for the experimental part: as §1
A short description of data set [8]: Toxicity (cell viability) in antiviral (CMV) test. Type of data set: cell-based. The following applies: Antiviral (CMV) data; read-out: TC50: Toxic Concentration at 50% cell viability. As for the experimental part: as §1
[9] abbreviates: DLD-1 human colon cancer cell line, read-out: Cytotoxicity IC50, DLD-1 (colon).
The mark [10] stands for this setting: CCRF-CEM human leukemia cell line.
Setting [11] is: SNB-7 human CNS cancer cell line, read-out: Cytotoxicity IC50, SNB-7 (CNS).
[12] abbreviates: CAKI-1 human renal cancer cell line, read-out: Cytotoxicity IC50, CAKI-1 (renal).
[13] abbreviates: NCI-H23 human lung cancer cell line, read-out: Cytotoxicity IC50, NCI-H23 (lung).
Where [14] appears, read: SK-MEL-28 human melanoma cell line, read-out: Cytotoxicity IC50, SK-MEL-28 (melanoma).

pIC50: −log10 of the molar value. Where two headings read alike, the source gives them in different places.

With `Nc1nc(Cl)nc2c1ncn2[C@@H]1S[C@@H](CO)[C@@H](O)[C@@H]1O` [Compound 9α, 2-Chloro-9-(4-thio-α-L-xylofuranosyl)adenine], the pIC50 in data set [1] (setting [9]), in data set [2] (setting [10]), in data set [3] (setting [11]), in data set [4] (setting [12]), in data set [5] (setting [13]) and in data set [6] (setting [14]) was below 4.00 throughout.
As for `Nc1ccn([C@@H]2S[C@@H](CO)[C@@H](O)[C@@H]2O)c(=O)n1` [Compound 15α, 1-(4-thio-α-L-Xylofuranosyl)cytosine], the pIC50 in data set [1] (setting [9]) was below 4.00; in data set [7], 7.59; in data set [2] (setting [10]), 5.10; in data set [3] (setting [11]), below 4.00; in data set [4] (setting [12]) it was below 4.00; in data set [5] (setting [13]), below 4.00. The pIC50 in data set [6] (setting [14]) was below 4.00. For the same molecule, the “TI: Therapeutic Index (TC50/IC50)” value in data set [7] was above 384.6. Moreover, the CC50 in data set [8] is above 10 µM.
`Nc1nc2c(ncn2[C@H]2S[C@@H](CO)[C@@H](O)[C@@H]2O)c(=O)[nH]1` [Compound 13, 9-(4-Thio-β-L-xylofuranosyl)guanine]: the pIC50 in data set [1] (setting [9]), in data set [2] (setting [10]), in data set [3] (setting [11]), in data set [4] (setting [12]), in data set [5] (setting [13]) and in data set [6] (setting [14]) was below 4.00 in each case.
Turning to `Nc1nc(N)c2ncn([C@H]3S[C@@H](CO)[C@@H](O)[C@@H]3O)c2n1` [Compound 12β, 9-(4-Thio-β-L-Xylofuranosyl)-9H-purine-2,6-diamine], the pIC50 in data set [1] (setting [9]), in data set [2] (setting [10]), in data set [3] (setting [11]), in data set [4] (setting [12]), in data set [5] (setting [13]) and in data set [6] (setting [14]) was below 4.00 each time.
As to “1-(4′-thio-α,β-L-Xylofuranosyl)thymine [Compound 17αβ]”, the pIC50 in data set [1] (setting [9]), in data set [2] (setting [10]), in data set [3] (setting [11]), in data set [4] (setting [12]), in data set [5] (setting [13]) and in data set [6] (setting [14]) was below 4.00 in each case.
`Nc1nc(Cl)nc2c1ncn2[C@H]1S[C@@H](CO)[C@@H](O)[C@@H]1O` [Compound 9β, 2-Chloro-9-(4-thio-β-L-xylofuranosyl)adenine]: the pIC50 in data set [1] (setting [9]), in data set [2] (setting [10]), in data set [3] (setting [11]), in data set [4] (setting [12]), in data set [5] (setting [13]) and in data set [6] (setting [14]) was below 4.00 in each case.
Regarding `Nc1nc(N)c2ncn([C@@H]3S[C@@H](CO)[C@@H](O)[C@@H]3O)c2n1` [Compound 12α, 9-(4-Thio-α-L-Xylofuranosyl)-9H-purine-2,6-diamine], the pIC50 was below 4.00 in data set [1] (setting [9]); 7.29 in data set [7]; below 4.00 in data set [2] (setting [10]); below 4.00 in data set [3] (setting [11]); below 4.00 in data set [4] (setting [12]); below 4.00 in data set [5] (setting [13]). Besides, the pIC50 in data set [6] (setting [14]) is below 4.00. In addition, the “TI: Therapeutic Index (TC50/IC50)” value in data set [7] is reported as above 196.1. The CC50 in data set [8] was above 10 µM.
For the molecule `Nc1nc(O)c2ncn(COC(CO)CO)c2n1` [Ganciclovir, reference compound], in data set [7], the pIC50 was 5.07 and the “TI: Therapeutic Index (TC50/IC50)” value was above 11.6. Besides, the CC50 in data set [8] is above 10 µM.
Regarding `Nc1ccn([C@H]2S[C@@H](CO)[C@@H](O)[C@@H]2O)c(=O)n1` [Compound 15β, 1-(4-thio-β-L-Xylofuranosyl)cytosine], the pIC50 is below 4.00 in data set [1] (setting [9]); 7.66 in data set [7]; 4.96 in data set [2] (setting [10]); 4.05 in data set [3] (setting [11]); below 4.00 in data set [4] (setting [12]); below 4.00 in data set [5] (setting [13]). Besides, the pIC50 in data set [6] (setting [14]) is below 4.00. The “TI: Therapeutic Index (TC50/IC50)” value in data set [7] is above 454.5. In data set [8], the CC50 is above 10 µM.
`O=c1ccn(C2S[C@@H](CO)[C@@H](O)[C@@H]2O)c(=O)[nH]1` (stereo partly drawn) [Compound 19αβ, 1-(4-thioα,β-L-Xylofuranosyl)uracil]: the pIC50 was below 4.00 in data set [1] (Homo sapiens, DLD-1, read-out: Cytotoxicity IC50, DLD-1 (colon)); below 4.00 in data set [2] (Homo sapiens, CCRF-CEM); below 4.00 in data set [3] (Homo sapiens, SNB-7, read-out: Cytotoxicity IC50, SNB-7 (CNS)); below 4.00 in data set [4] (Homo sapiens, CAKI-1, read-out: Cytotoxicity IC50, CAKI-1 (renal)); below 4.00 in data set [5] (Homo sapiens, NCI-H23, read-out: Cytotoxicity IC50, NCI-H23 (lung)); below 4.00 in data set [6] (Homo sapiens, SK-MEL-28, read-out: Cytotoxicity IC50, SK-MEL-28 (melanoma)).
